Results as given in patent US20170000889A1, “STABLE BROMFENAC OPHTHALMIC SOLUTION” (SENTISS PHARMA PRIVATE LIMITED, priority 2013, published 2017).

Experiment: Haziness of citrate-buffered bromfenac formulation on addition of BKC, effect of surfactants
Type: physicochemical
Details: for Degradation of the bromfenac solution with the surfactant: compared among different surfactants; for Haziness after addition of BKC to the citrate formulation: surfactant added to citrate-buffered bromfenac solution with benzalkonium chloride
Experimental: In yet other embodiment of the present invention, citrate buffer is used instead of borate buffer but when benzalkonium chloride (BKC) was added in the citrate formulation it causes haziness of the formulation.
The inventors of the present invention extensively studied how to overcome the haziness occurred during the addition of BKC.

Substance | Degradation of the bromfenac solution with the surfactant | Haziness after addition of BKC to the citrate formulation
polyoxyl-15-hydroxystearate | least amount of degradation | remove the haziness
polysorbate 80 | least amount of degradation | remove the haziness
